Key:
ABCA1 = ABCA1 up-regulation, luciferase reporter in ABCA1P-LUC HepG2 cells; assay type: cell-based; conditions: Homo sapiens, 18 h, maximum up-regulation fold of luciferase activity versus DMSO, read-out: ABCA1 max
Procedure: (§1) Experiments were conducted to detect whether the compounds of the disclosure can pharmacologically up-regulate the expression of ABCA1 and SR-BI. Firstly, ABCA1P-LUC HepG2 cells or SR-BI-LUC HepG2 cells in logarithmic growth phase were digested, diluted in cell culture medium, and counted. Cells were seeded into 96-well plates at a density of 5×10^5/ml (100 μL of the single-cell suspension per well). After cells fully adhered (about 6 h), the medium containing 10% FBS was removed, and the cells were gently washed with PBS. Serum free MEM-EBSS medium (200 μL per test well) and 2 μL of the compounds to be tested (at a final concentration of 10 μg/mL) were added to each test well, and meanwhile, DMSO at a corresponding concentration was added to the control well. After 18-24 h, the medium was removed. Cell Luciferase activity was measured by a method as described in the Luciferase Assay System. By optimizing the final concentration of DMSO, the treatment time of the compounds on the cells and the number of cells seeded into each well during the screening, the final screening conditions were determined as follows: each well is seeded with 5×10^4 cells, DMSO is added at a final concentration of 1%, and the sample is treated for 18 h.
(§2) The ratio of change of luciferase activity is calculated with the following formula: Ratio of change (%)=A/B×100;
(§3) wherein A is the luciferase activity (RLU) measured after the compound to be tested is added, and B is the luciferase activity (RLU) measured after the blank control (DMSO) is added. The luciferase activity of cells in each well was measured, and the dose-effect relationship between the concentration of the compound and the ratio of change of the luciferase activity was determined to calculate the EC50.

SR-BI = SR-BI up-regulation, luciferase reporter in SR-BI-LUC HepG2 cells; assay type: cell-based; conditions: Homo sapiens, 18 h, maximum up-regulation of luciferase activity versus DMSO, read-out: SR-BI max
Procedure: as §1, §2, §3

[1] = background statement; cited from earlier work
LXRα = target: T1, LXRα (Homo sapiens, UniProt Q13133); assay: Nuclear receptor reporter gene transient transfection (pBIND-hLXRs-LBD) in HepG2 cells, LXRα; assay type: cell-based; conditions: for LXRα max: HepG2 cells, reporter gene, 18-24 h; for LXRα agonist activity: result in words
T1 construct: expressed in transfected cells; host or cells: HepG2
T1 sequence (Q13133 209-447 limits assumed): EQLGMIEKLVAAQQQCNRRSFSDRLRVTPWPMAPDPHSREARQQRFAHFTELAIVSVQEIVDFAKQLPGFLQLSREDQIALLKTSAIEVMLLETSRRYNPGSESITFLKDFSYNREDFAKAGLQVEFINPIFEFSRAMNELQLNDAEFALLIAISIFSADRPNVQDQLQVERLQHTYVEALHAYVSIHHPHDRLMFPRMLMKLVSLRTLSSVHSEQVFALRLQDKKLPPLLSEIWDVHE
Procedure: (§4) HepG2 cells in logarithmic growth phase were digested, seeded into the white/clear 96-well plate at a density of 5×10^4 cells/well/100 μL until the cells grew to about 90% confluence and in good condition. 0.5 μL liposome (Lipofectamine® 2000) diluted with blank medium to 25 μL per well and incubated at room temperature for 5 min. The corresponding plasmids DNA (nuclear receptor plasmid:Gal4=1:10) were diluted in blank DMEM medium to 25 μL/well (mixing of two plasmids), then mixed evenly with the diluted liposome, and incubated for 20 min at 37° C. The DNA-liposome complex (50 μL per well) was added with the DMEM complete medium (100 μL per well) and mixed thoroughly to obtain a DNA-liposome complex cell culture. The cell medium was discarded, and replaced with the DNA-liposome complex cell culture (150 μL/well) (37° C., 5% CO2). After 6 h, the DNA-liposome complex cell culture medium was discarded, and 200 μL serum-free DMEM medium containing the compound at an appropriate concentration was added to each test well, and cultured for 18-24 h. The cell Luciferase activity was measured by the method as described in the Luciferase Assay System.

LXRβ = target: T2, LXRβ (Homo sapiens, UniProt P55055); assay: Nuclear receptor reporter gene transient transfection (pBIND-hLXRs-LBD) in HepG2 cells, LXRβ; assay type: cell-based; conditions: for LXRβ max: HepG2 cells, reporter gene, 18-24 h; for LXRβ agonist activity: result in words
T2 construct: expressed in transfected cells; host or cells: HepG2
T2 sequence (P55055 222-460 limits assumed): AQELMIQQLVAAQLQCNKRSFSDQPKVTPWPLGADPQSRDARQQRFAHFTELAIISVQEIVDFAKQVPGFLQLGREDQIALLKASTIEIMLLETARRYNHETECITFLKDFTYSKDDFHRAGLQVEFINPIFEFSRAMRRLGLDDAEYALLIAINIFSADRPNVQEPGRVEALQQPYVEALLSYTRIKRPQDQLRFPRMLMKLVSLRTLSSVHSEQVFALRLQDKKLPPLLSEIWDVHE
Procedure: as §4

Row | SMILES | maximal fold induction (ABCA1) | maximal fold induction (SR-BI) | oral bioavailability [1] | LXRα max (LXRα) | LXRα agonist activity (LXRα) | LXRβ max (LXRβ) | LXRβ agonist activity (LXRβ)
1 | O=c1c2ccccc2nc2n1CCc1c-2[nH]c2ccccc12 [RUT, Rutaecarpine, reference compound] | 2.09 | 2.12 | very low | – | – | – | –
2 | c1ccc2c(c1)CN1CCc3c([nH]c4ccccc34)C1N2 (stereo not shown) [TR2, 5,7,8,13,13b,14-hexahydroindolo[2′,3′:3,4]pyrido[2,1-b]quinazoline] | 1.66 | 1.76 | – | – | – | – | –
3 | O=c1c2ccccc2nc2c3[nH]c4ccccc4c3ccn12 [TR4, indolo[2′,3′:3,4]pyrido[2,1-b]quinazolin-5(13H)-one] | 1.84 | 1.74 | – | 1.84 | showed agonist activity | 1.88 | showed agonist activity
4 | O=C1c2ccccc2N(C(=O)C(F)(F)F)C2c3[nH]c4ccccc4c3CCN12 (stereo not shown) [TR6, 14-(2,2,2-trifluoroacetyl)-8,13,13b,14-tetrahydroindolo[2′,3′:3,4]pyrido[2,1-b]quinazolin-5(7H)-one] | 1.96 | 1.56 | – | 2.03 | showed agonist activity | 1.69 | showed agonist activity
5 | O=c1c2ccccc2nc2n1CCc1c-2[nH]c2c(Cl)cccc12 [TR10, 12-chloro-8,13-dihydroindolo[2′,3′:3,4]pyrido[2,1-b]quinazolin-5(7H)-one] | 1.43 | 1.72 | – | – | – | – | –
6 | O=c1c2cccnc2nc2n1CCc1c-2[nH]c2c(Cl)cccc12 [TR11, 12-chloro-8,13-dihydropyrido[2″,3″:4′,5′]pyrimido[1′,2′:1,2]pyrido[3,4-b]indol-5(7H)-one] | 1.57 | 1.68 | – | – | – | – | –
7 | Cc1cccc2c3c([nH]c12)-c1nc2ncccc2c(=O)n1CC3 [TR12, 12-methyl-8,13-dihydropyrido[2″,3″: 4′,5′]pyrimido[1′,2′:1,2]pyrido[3,4-b]indol-5(7H)-one] | 1.51 | 1.44 | – | – | – | – | –
8 | O=c1c2cccnc2nc2n1CCc1c-2[nH]c2c(F)cccc12 [TR13, 12-fluoro-8,13-dihydropyrido[2″,3″:4′,5′]pyrimido[1′,2′:1,2]pyrido[3,4-b]indol-5(7H)-one] | 1.54 | 1.72 | – | – | – | – | –
9 | O=c1c2cccnc2nc2n1CCc1c-2[nH]c2ccc(Cl)cc12 [TR14, 10-chloro-8,13-dihydropyrido[2″,3″: 4′,5′]pyrimido[1′,2′:1,2]pyrido[3,4-b]indol-5(7H)-one] | 1.48 | 1.57 | – | – | – | – | –
10 | O=c1c2ccccc2cc2n1CCc1c-2[nH]c2ccccc12 [TY3, 8,13-dihydroindolo[2′,3′:3,4]pyrido[1,2-b]isoquinolin-5(7H)-one] | 1.97 | 1.41 | – | – | – | – | –
11 | O=C1c2ccccc2OC2c3[nH]c4ccccc4c3CCN12 (stereo not shown) [TY4, 7,8,13,13b-tetrahydro-5H-benzo[5′,6′][1,3]oxazino[3′,2′:1,2]pyrido[3,4-13]indol-5-one] | 1.5 | 1.22 | – | – | – | – | –

Reference: patent publication US12590093B2, “Indolo[2′,3′:3,4]pyrido[2,1-b]quinazoline compound and use thereof” (INSTITUTE OF MEDICINAL BIOTECHNOLOGY CHINESE ACADEMY OF …, priority 2019, dated 2026)
